Laboratory results taken from publication PMC6946680, “Modulation of brain cation-Cl^− cotransport via the SPAK kinase inhibitor ZT-1a” (Nature Communications, 2020).
Several values for one entry are separate records, joined by “and”; a condition that tells them apart may be missing. Equal entries are not always repeated.

Experiments:
SPAK–WNK1 interaction = test system: T1, SPAK–WNK1 interaction; test: SPAK antibody pull-down / co-immunoprecipitation of WNK1 from HEK-293 cell lysates; assay type: binding, human; conditions: for WNK1 co-immunoprecipitated with SPAK (band quantification): Fig S6
T1 construct: endogenous in cells; host or cells: HEK-293
Experimental: Supplemental Fig. 6 Evidence that SPAK associates with WNK1, and interaction is disrupted by ZT-1a and its analogs. Non-transfected HEK293 cell lysates were incubated with the RFQV peptide […]
ZT-1a for 30 min on ice and subjected to SPAK antibody immunoprecipitation. Immunoprecipitates were subjected to immunoblot probed with antibody to total WNK1 and antibody to total SPAK. Left panels: representative immunoblots. Right panels, summarized data quantitated by densitometry (n=3, means ± SEM; **,

NKCC1 = test: 86Rb+ uptake assay for NKCC1 activity in HEK-293 cells; assay type: cell-based; design: key to 86Rb+ uptake: 86Rb+ uptake in CPM per mg protein; conditions: for 86Rb+ uptake: replicates
Experimental: (§1) Thirty-six hours post transfection, cells were exposed for 30 min to either control isotonic conditions or hypotonic low [Cl^−] conditions (to activate the SPAK/OSR1 pathway), and then treated for an additional 30 min in the same conditions with the indicated ZT-1a concentrations in the presence of 1 mM ouabain and 0.1 mM bumetanide. Ten-minute ^86Rb^+ uptake values were quantified by scintillation counting, normalized per mg protein for each condition, and plotted for both isotonic and hypotonic conditions. ***p < 0.001; **p < 0.01; *p < 0.05; ns—nonsignificant [by one-way ANOVA with post hoc testing (n = 6, error bars represent the mean ± SEM)]. b ^86Rb^+ uptake assays in the presence of ZT-1a measure transport activity of NKCC1. […] Thirty-six hours post transfection, cells were exposed for 30 min to either control isotonic conditions or hypotonic low [Cl^−] conditions (to activate the SPAK/OSR1 pathway), and then treated in the same conditions for an additional 30 min with 10 µM ZT-1a or 0.1 mM bumetanide (Bum) in the presence of 1 mM ouabain (Na^+/K^+-ATPase inhibitor). ^86Rb^+ uptake was allowed to proceed for 10 min and was then quantified by scintillation counting. ^86Rb^+ uptake CPMs were normalized per mg protein and plotted for both isotonic and hypotonic conditions. […] Thirty-six hours post transfection, cells were exposed for 30 min to either control isotonic conditions or hypotonic low [Cl^−] conditions (to activate the SPAK/OSR1 pathway), and then treated for an additional 30 min in the same conditions with the indicated ZT-1a concentrations in the presence of 1 mM ouabain. Ten-minute ^86Rb^+ uptake values were quantified by scintillation counting, normalized per mg protein for each condition, and plotted for both isotonic and hypotonic conditions. ***p < 0.001; **p < 0.01; *p < 0.05; ns—nonsignificant [by one-way ANOVA with post hoc testing (n = 6, error bars represent the mean ± SEM)].
(§2) This stimulating medium was then removed and replaced with isotonic medium containing inhibitors plus 2 µCi/ml ^86Rb^+. After incubation for 10 min at 37 °C, cells were rapidly washed three times with the respective ice-cold nonradioactive medium. Washed cells were lysed in 300 µl of ice-cold lysis buffer and ^86Rb^+ uptake was quantitated by liquid scintillation counting (PerkinElmer).

KCC3 = test: 86Rb+ uptake assay for KCC3 activity in HEK-293 cells; assay type: cell-based, human; design: key to 86Rb+ uptake: 86Rb+ uptake CPM normalized per mg protein (10-min uptake); conditions: for 86Rb+ uptake: replicates
Experimental: ^86Rb^+ flux assays have been utilized extensively as a reliable measurement of cation chloride cotransporter activity[51]–[54].
as §1, §2

[1] = test system: mouse model of ischemic stroke (tMCAO); test: Corner test after tMCAO; assay type: in vivo; conditions: for Corner test (Unilateral turns): Fig 7c, individual mice #1-#7
PDGFRA = test: Kinase profiling panel; assay type: biochemical
Experimental: (§3) Supplementary Table 2. ZT-1a kinase profiling data6.
(§4) ZT-1a was tested at 10 and 1 µM against a panel of 140 recombinant kinases in an enzymatic
(§5) activity-based assay performed by the International Centre for Kinase Profiling in the MRC
(§6) Protein Phosphorylation and Ubiquitylation Unit. Values represent % residual kinase activity

PAK2 = test: Kinase profiling panel; assay type: biochemical
Experimental: as §3, §4, §5, §6

EPH-B1 = test: Kinase profiling panel; assay type: biochemical
Experimental: as §3, §4, §5, §6

RSK1 = test: Kinase profiling panel; assay type: biochemical
Experimental: as §3, §4, §5, §6

p38d MAPK = test: Kinase profiling panel; assay type: biochemical
Experimental: as §3, §4, §5, §6

GSK3b = test: Kinase profiling panel; assay type: biochemical
Experimental: as §3, §4, §5, §6

MAP4K3 = test: Kinase profiling panel; assay type: biochemical
Experimental: as §3, §4, §5, §6

CK1γ2 = test: Kinase profiling panel; assay type: biochemical
Experimental: as §3, §4, §5, §6

PAK4 = test: Kinase profiling panel; assay type: biochemical
Experimental: as §3, §4, §5, §6

PDK1 = test: Kinase profiling panel; assay type: biochemical
Experimental: as §3, §4, §5, §6

JAK2 = test: Kinase profiling panel; assay type: biochemical
Experimental: as §3, §4, §5, §6

DDR2 = test: Kinase profiling panel; assay type: biochemical
Experimental: as §3, §4, §5, §6

LKB1 = test: Kinase profiling panel; assay type: biochemical
Experimental: as §3, §4, §5, §6

NEK6 = test: Kinase profiling panel; assay type: biochemical
Experimental: as §3, §4, §5, §6

humans = conditions: cited from earlier work

Cc1cc(C(C#N)c2ccc(Cl)cc2)c(Cl)cc1NC(=O)c1cc(Cl)ccc1O (centres unmarked) [ZT-1a, 5-chloro-N-(5-chloro-4-((4-chlorophenyl)(cyano)methyl)-2-methylphenyl)-2-hydroxybenzamide]
WNK1 co-immunoprecipitated with SPAK (band quantification) (SPAK–WNK1 interaction; 10 uM): 0.445 and 0.402 and 0.4282 and 0.39 | WNK1 co-immunoprecipitated with SPAK (band quantification) (SPAK–WNK1 interaction; 30 uM): 0.176 and 0.186 and 0.196 | WNK1 co-immunoprecipitated with SPAK (band quantification) (SPAK–WNK1 interaction; 100 uM): 0.121 and 0.086 and 0.0911 and 0.105 | WNK1 co-immunoprecipitated with SPAK (band quantification) (SPAK–WNK1 interaction; 300 uM): 0.066 and 0.072 and 0.068 and 0.058 | WNK1 co-immunoprecipitated with SPAK (band quantification) (SPAK–WNK1 interaction; 1000 uM): 0.048 and 0.027 and 0.0332 and 0.031 | co-immunoprecipitation of WNK1 with SPAK (SPAK–WNK1 interaction; HEK-293 cell lysates, absence or presence of competitor peptide): abolished by ZT-1a more potently than by STOCK1S-50699 or by Closantel | 86Rb+ uptake (NKCC1; Fig 3b right, NKCC1, ZT-1a 1 uM, Hypotonic low Cl-): 31312.2 and 30912.6 and 28110.4 and 29118.3 and 28103.5 and 29176.8 | 86Rb+ uptake (NKCC1; Fig 3b right, NKCC1, ZT-1a 1 uM, Isotonic control): 5076.2 and 4867.3 and 5812.7 and 4239.7 and 5129.6 and 5519.2 | 86Rb+ uptake (NKCC1; Fig 3b right, NKCC1, ZT-1a 3 uM, Hypotonic low Cl-): 14078.7 and 13156.2 and 15002.4 and 14182.5 and 14354.3 and 14621.6 | 86Rb+ uptake (NKCC1; Fig 3b right, NKCC1, ZT-1a 3 uM, Isotonic control): 3812.1 and 3286.7 and 4513.3 and 4013.5 and 3012.8 and 3586.3 | 86Rb+ uptake (NKCC1; Fig 3b right, NKCC1, ZT-1a 10 uM, Hypotonic low Cl-): 3712.6 and 5014.2 and 4381.3 and 3518.2 and 4604.5 and 3837.1 | 86Rb+ uptake (NKCC1; Fig 3b right, NKCC1, ZT-1a 10 uM, Isotonic control): 1476.7 and 1378.3 and 1409.2 and 1215.2 and 1522.8 and 1368.4 | 86Rb+ uptake (NKCC1; Fig 3b, NKCC1 + 1a (10 µM), Hypotonic low Cl-): 7709.2 and 9015.3 and 7102.3 and 8791.5 and 8682.5 and 8108.1 | 86Rb+ uptake (NKCC1; Fig 3b, NKCC1 + 1a (10 µM), Isotonic control): 1446.7 and 1247.2 and 1369.6 and 1195.7 and 1501.2 and 1382.8 | NKCC1-mediated K+ influx (NKCC1; ZT-1a at concentration > 1 µM, isotonic or hypotonic low Cl−): significantly inhibited | activation of WT KCC3 (KCC) activity (KCC3; 86Rb+ flux, 10 µM ZT-1a, HEK-293): > 10.6 fold and > 10 fold | 86Rb+ uptake (KCC3; Fig 3a right, KCC3 wt, ZT-1a 1 uM, Hypotonic low Cl-): 1990.9 and 1707.8 and 2071.9 and 2501.3 and 2188.7 and 2073.1 | 86Rb+ uptake (KCC3; Fig 3a right, KCC3 wt, ZT-1a 1 uM, Isotonic control): 3241.3 and 3419.1 and 2873.4 and 3612.8 and 2913.5 and 2519.3 | 86Rb+ uptake (KCC3; Fig 3a right, KCC3 wt, ZT-1a 3 uM, Hypotonic low Cl-): 4012.2 and 3271.9 and 4514.8 and 3888.6 and 3729.3 and 3910.5 | 86Rb+ uptake (KCC3; Fig 3a right, KCC3 wt, ZT-1a 3 uM, Isotonic control): 6755.1 and 6519.9 and 7018.4 and 6691.3 and 7512.7 and 6011.7 | 86Rb+ uptake (KCC3; Fig 3a right, KCC3 wt, ZT-1a 10 uM, Hypotonic low Cl-): 11981.4 and 10921.3 and 12650.2 and 11037.8 and 12144.8 and 9615.1 | 86Rb+ uptake (KCC3; Fig 3a right, KCC3 wt, ZT-1a 10 uM, Isotonic control): 17537.1 and 16129.4 and 18002.7 and 19588.5 and 17991.3 and 15002.2 | 86Rb+ uptake (KCC3; Fig 3a, KCC3 wt + 1a (10 µM), Hypotonic low Cl-): 12251.1 and 13980.5 and 10874.7 and 11830.4 and 14081.1 and 11229.7 | 86Rb+ uptake (KCC3; Fig 3a, KCC3 wt + 1a (10 µM), Isotonic control): 17623.6 and 19014.4 and 18719.8 and 19961.7 and 18001.8 and 17951.6 | Corner test (Unilateral turns) ([1]; Day 1): 9 Unilateral turns (2×) and 10 Unilateral turns and 6 Unilateral turns (4×) | Corner test (Unilateral turns) ([1]; Day 3): 6 Unilateral turns (2×) and 10 Unilateral turns and 7 Unilateral turns (3×) and 5 Unilateral turns | Corner test (Unilateral turns) ([1]; Day 5): 6 Unilateral turns (5×) and 5 Unilateral turns (2×) | Corner test (Unilateral turns) ([1]; Day 7): 6 Unilateral turns (4×) and 5 Unilateral turns (3×) | Corner test (Unilateral turns) ([1]; Day -1 (baseline)): 5 Unilateral turns (5×) and 6 Unilateral turns (2×) | corner test, turn preference/asymmetries ([1]; ZT-1a 5.0 mg/kg, days 1–7 post stroke): absence of asymmetries by day 7 post stroke | % residual kinase activity (PDGFRA; 1 µM): 84±11% | % residual kinase activity (PDGFRA; 10 µM): 80±7% | % residual kinase activity (PAK2; 1 µM): 110±4% | % residual kinase activity (PAK2; 10 µM): 93±8% | % residual kinase activity (EPH-B1; 1 µM): 77±15% | % residual kinase activity (EPH-B1; 10 µM): 80±19% | % residual kinase activity (RSK1; 1 µM): 95±2% | % residual kinase activity (RSK1; 10 µM): 87±4% | % residual kinase activity (p38d MAPK; 1 µM): 95±1% | % residual kinase activity (p38d MAPK; 10 µM): 112±2% | % residual kinase activity (GSK3b; 1 µM): 39±4% | % residual kinase activity (GSK3b; 10 µM): 38±12% | % residual kinase activity (MAP4K3; 1 µM): 134±5% | % residual kinase activity (MAP4K3; 10 µM): 88±2% | % residual kinase activity (CK1γ2; 1 µM): 112±12% | % residual kinase activity (CK1γ2; 10 µM): 124±23% | % residual kinase activity (PAK4; 1 µM): 81±16% | % residual kinase activity (PAK4; 10 µM): 51±3% | % residual kinase activity (PDK1; 1 µM): 92±6% | % residual kinase activity (PDK1; 10 µM): 69±17% | % residual kinase activity (JAK2; 1 µM): 125±6% | % residual kinase activity (JAK2; 10 µM): 123±8% | % residual kinase activity (DDR2; 1 µM): 111±20% | % residual kinase activity (DDR2; 10 µM): 99±8% | % residual kinase activity (LKB1; 1 µM): 107±8% | % residual kinase activity (LKB1; 10 µM): 115±11% | % residual kinase activity (NEK6; 1 µM): 107±6% | % residual kinase activity (NEK6; 10 µM): 108±1%

Cc1cc(C(C#N)c2ccc(Cl)cc2)c(Cl)cc1NC(=O)c1cc(I)cc(I)c1O (centres unmarked) [Closantel, reference compound]
toxicity contraindicating use in humans (humans): retinal toxicity
